Experimental data taken from PubChem BioAssay (NCI).
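Where inhibition never reached the appropriate level, the endpoint shown equals the highest concentration tested. Otherwise, values were interpolated linearly from a five-concentration, 48-hour dose response in 96-well plates. GI50 = concentration required for 50% inhibition of growth. TGI: total growth inhibition.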

What was measured:
Test in all cases: NCI-60 cell line screen, 48 h
[1] = tested on: A498 renal
[2] = tested on: ACHN renal
[3] = tested on: HL-60(TB) leukemia
[4] = tested on: HS 578T breast
[5] = tested on: K-562 leukemia
[6] = tested on: MALME-3M melanoma
[7] = tested on: NCI/ADR-RES ovarian
[8] = tested on: SK-OV-3 ovarian
[9] = tested on: T-47D breast
[10] = tested on: TK-10 renal
[11] = tested on: UACC-257 melanoma
[12] = tested on: UO-31 renal

## NC(N)=Nc1ccc(Nc2cccc(Nc3ccc(Cl)c(C(F)(F)F)c3)c2)cn1
[1]
  GI50: 1.69 µM
  TGI: 4.72 µM
[2]
  GI50: 3.58 µM
  TGI: 17.5 µM
[3]
  GI50: 2.31 µM
  TGI: 5.74 µM
[4]
  GI50: 2.04 µM
  TGI: 4.94 µM
[5]
  GI50: 2.54 µM
  TGI: > 100 µM
[6]
  GI50: 2.01 µM
  TGI: 5.36 µM
[7]
  GI50: 21.6 µM
  TGI: 93.4 µM
[8]
  GI50: 2.81 µM
  TGI: 6.91 µM
[9]
  GI50: 1.85 µM
  TGI: 4.87 µM
[10]
  GI50: 2.77 µM
  TGI: 7.58 µM
[11]
  GI50: 2.39 µM
  TGI: 6.53 µM
[12]
  GI50: 4.33 µM
  TGI: 38.3 µM
